Test results: US9939427B2, “Method for evaluating the scent performance of perfumes or perfume mixtures” (Symrise AG, priority 2013, dated 2018)
“Also recorded” adds a separate entry of the source.

What was measured:
Type in all cases: cell-based
[1] = test system: HEK293 cells transfected with all cofactors and pCI plasmids without ORs; test: Ca-imaging of control HEK293 cells without OR; conditions: odorant 200 μM, three times of measuring (Table 4, FIG. 5)
Description: (§1) HEK293 cells were cultivated in Petri dishes (Ø35 mm) as previously described (Benbernou et al. 2007). We grow up HEK293 cells in culture medium containing standard DMEM with 10% heat-inactivated fetal bovine serum, 2 mM L-glutamine, 100 units/ml penicillin, and 100 units/ml streptomycin in a humidified atmosphere (37° C., 5% CO2). After 2-3 days, the transfection process was carried out, whereby the cell culture was 70-80% confluent. The calciumphosphate method was applied to transfect DNA plasmid transiently in HEK293 cells in case of Ca-imaging method.
(§2) Calcium cations and phosphate anions created crystal precipitations coupled with DNA which could invade into the cells through endocytosis. Cells were transiently transfected with plasmid DNA which consists of pCI expression vector and PCR-amplified full-length cDNA of olfactory receptors candidates, and also Gα15, RTP1, Myr-Ric8A, HSC70, and m-Cherry as cofactors. The precipitation could be created after 15-20 min, with dropping the transfection solution on HEK293 cells. Before measuring by Ca-imaging cells were incubated 48-60 hours at 370 C, 5% CO2. Cationic liposome-mediated transfection method was applied to transfect DNA plasmid transiently in HANA3A cells in case of CRE-Luciferase and CRE-SEAP assays.
(§3) Calcium imaging of the transfected HEK293 cells was done by using chambers determinate an inverted microscope (Olympus; IX70) using a 10× objective (CPIanFL N Olympus). Fluorescence emission was determined every 4 s by using a CCD camera (Charge Coupled Device, C9100 Hamamatsu). The capillary tube which was responsible to supply odorants was generated closely above the cells. The columns filled with odorants, DMSO and ATP. Odorants were manually monitored to drop each 4-5 s to transfected cells. Solutions with drop wise form spread on HEK293 cells in 35 mm dishes.
(§4) In experiments, Fura-2 Acetoxymethylester (Fura-2/AM) was applied. The non-polar Fura2/AM is fluorescent but not yet calcium-sensitive. Once diffuses into cell plasma, Fura-2/AM is hydrolyzed to Fura-2 which is calcium-sensitive and functions as Ca2+ chelator. Regardless of the presence of calcium, Fura-2 emits at the wavelength of 510 nm. Once Fura-2 binds to free intracellular Ca2+ in cell plasma, its ratio of excitation at wavelengths of 340 nm and 380 nm is changed and correlated to the amount of intracellular Ca2+. According to this feature, the analysis of 340/380 nm excitation ratio for Fura-2 allows to quantify intracellular calcium levels.
(§5) In preparation for Ca-imaging measurements, transfected HEK293 cells were added 3 it Fura2/AM (3 μM) and incubated 30-45 min at 370 C, 5% CO2. After this step, experiments were carried out in a dark condition (Fura-2 is light-sensitive). After the incubation, medium of cell culture was replaced with 2 ml Ringer's solution.
(§6) Odorants were freshly prepared with DMSO as 1 M stocks solutions. Six mixtures (200 μM each chemical) were applied to cells sequentially (20 s each mixture/30 s Ringer). Those ORs tested with single odorants that had generated a response to odorant mixture group previously. Odorants were prepared in 100-200 μM concentration.
(§7) Ringer's solution was used for washing cells between measuring by two different odorants. Positive response was determined by the timing of the response, the strength of the response (more than twofold higher than the noise amplitude of the baseline), and the shape of the response curve (sharp rise in curve with gradual recovery). The typical shape of response curves was established by observing responses to repeated stimulation with 200 μM of odorants. After testing with single odorants at 100 μM, stimulating odorants were often retested at 200 μM concentrations. To confirm the result of every receptor that produced a significant response curves, the experiment was repeated for twelve times. Finally, cells were exposed to ATP (0.25 mM) which could activate P2Y receptor channel and induce Ca2+ influx into cells. […]

OR2L8 [2] = molecular target: T1, OR2L8 (Homo sapiens, UniProt Q8NGY9); test: Ca-imaging of OR2L8-transfected HEK293 cells; set-up: key to OR2L8 responded to odorant: ▪: 18 olfactory receptors responded to 32 odorants in related with specific anosmia
T1 construct: specific primers, which amplify the complete open reading frame; expressed in transfected cells; host or cells: HEK293
T1 sequence (Q8NGY9 1-312): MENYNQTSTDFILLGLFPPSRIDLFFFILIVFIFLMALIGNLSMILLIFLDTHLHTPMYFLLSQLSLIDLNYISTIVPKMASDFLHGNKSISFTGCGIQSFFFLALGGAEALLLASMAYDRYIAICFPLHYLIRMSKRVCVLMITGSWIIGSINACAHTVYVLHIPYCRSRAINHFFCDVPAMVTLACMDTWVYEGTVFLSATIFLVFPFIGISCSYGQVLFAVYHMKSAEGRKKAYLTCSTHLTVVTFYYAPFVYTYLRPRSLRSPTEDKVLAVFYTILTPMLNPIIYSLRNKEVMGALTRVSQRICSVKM
Description: as §1, §2, §3, §4, §5, §6, §7

OR2L8 [3] = molecular target: T1, OR2L8; test: CRE-luciferase assay, OR2L8 in HANA3A cells; conditions: 50 μM, 100 μM and 150 μM; normalized to DMSO
Description: as §2, with “assays. […]” for “assays.”
ORs responded by Ca-imaging with seven separate odorant mixtures formed from 66 odorants. […] Transfected HANA3A cells on poly-D-lysine-coated 96 well plates are ready for stimulation after 24 h. […] Measuring by plate reader (Luminometer). • 6. […] Measuring by plate reader (Luminometer). • 8. According to manufacturer's protocols for measuring luciferase and renilla activities, calculate normalized luciferase activity with using the formula (Ln-Lmin)/(Lmax-Lmin), where Ln is the luminescence of firefly in response to the odorant, L min is the minimum luciferase value on a plate, and L max is the maximum luciferase value on plate. […]

OR4K5 = molecular target: T2, OR4K5 (Homo sapiens, UniProt Q8NGD3); test: Ca-imaging of OR4K5-transfected HEK293 cells; set-up: key to OR4K5 responded to odorant: ▪: 18 olfactory receptors responded to 32 odorants in related with specific anosmia
T2 construct: specific primers, which amplify the complete open reading frame; expressed in transfected cells; host or cells: HEK293
T2 sequence (Q8NGD3 1-323): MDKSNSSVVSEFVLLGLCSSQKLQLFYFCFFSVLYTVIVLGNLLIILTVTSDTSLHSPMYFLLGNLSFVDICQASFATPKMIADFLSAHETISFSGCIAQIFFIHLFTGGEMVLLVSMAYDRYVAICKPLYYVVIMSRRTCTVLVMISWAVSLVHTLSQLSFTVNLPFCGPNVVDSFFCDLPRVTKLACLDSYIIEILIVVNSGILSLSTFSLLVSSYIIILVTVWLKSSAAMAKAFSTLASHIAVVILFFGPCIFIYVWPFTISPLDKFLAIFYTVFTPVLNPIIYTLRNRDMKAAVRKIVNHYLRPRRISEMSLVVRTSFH
Description: as §1
as §2, with “Cationic liposome-mediated transfection method was applied to transfect DNA plasmid transiently in HANA3A cells in case of CRE-Luciferase and CRE-SEAP assays.” left out
Calcium imaging of the transfected HEK293 cells was done by using chambers determinate an inverted microscope (Olympus; IX70) using a 10× objective (CPIanFL N Olympus). Fluorescence emission was determined every 4 s by using a CCD camera (Charge Coupled Device, C9100 Hamamatsu). […] Odorants were manually monitored to drop each 4-5 s to transfected cells. […]
In experiments, Fura-2 Acetoxymethylester (Fura-2/AM) was applied. […] According to this feature, the analysis of 340/380 nm excitation ratio for Fura-2 allows to quantify intracellular calcium levels. […]
Ringer's solution was used for washing cells between measuring by two different odorants. Positive response was determined by the timing of the response, the strength of the response (more than twofold higher than the noise amplitude of the baseline), and the shape of the response curve (sharp rise in curve with gradual recovery). […]

OR2L8 responded to odorant (OR2L8 [2]; Ca-imaging, HEK293 cells, individual odorant 200 μM, significant response p<0.05): ▪
Number of cell responses, Experiment (OR2L8) (OR2L8 [2]; odorant 200 μM, approximately 2000 transfected cells in three times of measuring (Table 4, FIG. 5)): 10
CRE-luciferase (cAMP assay) response of OR2L8 (OR2L8 [3]): weak response
OR4K5 responded to odorant (OR4K5; HEK293 cells, individual odorant 200 μM, significant response p<0.05): ▪
Response of OR4K5 to odorant, in words (OR4K5; single odorants 200 μM): detected
Substance: Ysamber K [Yasamber K]
Number of cell responses, Control [1]: 2
Response of OR2L8 to odorant, in words (OR2L8 [2]; Ca-imaging, single odorants 200 μM): Ca2+ concentration increased; also recorded: detected
